{"source": "patent US12180187B2", "about": "“1-phenyl-5-azinylpyrazolyl-3-oxyalkyl acids and their use for controlling unwanted plant growth” (BAYER AKTIENGESELLSCHAFT, priority 2019, dated 2024)", "key": {"[1]": {"system": "ALOMY", "experiment": "Pre-emergence action against ALOMY, 1280 g/ha", "type": "in vivo, Alopecurus myosuroides", "settings": "visual scoring after about 3 weeks vs untreated controls, 100% = plants have died, 0% = like control plants", "outline": "(§1)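 In greenhouse pots of sandy loam, sown weed seeds were covered with soil and treated pre-emergence with the compound in water (600 L/ha, 0.5% additive). Efficacy was assessed visually as percent of untreated control after about 3 weeks.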"}, "[2]": {"system": "DIGSA", "experiment": "Pre-emergence action against DIGSA, 1280 g/ha", "type": "in vivo, Digitaria sanguinalis", "settings": "visual scoring after about 3 weeks vs untreated controls, 100% = plants have died, 0% = like control plants", "outline": "as §1"}, "[3]": {"system": "ECHCG", "experiment": "Pre-emergence action against ECHCG, 1280 g/ha", "type": "in vivo, Echinochloa crus-galli", "settings": "visual scoring after about 3 weeks vs untreated controls, 100% = plants have died, 0% = like control plants", "outline": "as §1"}, "[4]": {"system": "LOLRI", "experiment": "Pre-emergence action against LOLRI, 1280 g/ha", "type": "in vivo, Lolium rigidum", "settings": "visual scoring after about 3 weeks vs untreated controls, 100% = plants have died, 0% = like control plants", "outline": "as §1"}, "[5]": {"system": "POAAN", "experiment": "Pre-emergence action against POAAN, 1280 g/ha", "type": "in vivo, Poa annua", "settings": "visual scoring after about 3 weeks vs untreated controls, 100% = plants have died, 0% = like control plants", "outline": "as §1"}, "[6]": {"system": "SETVI", "experiment": "Pre-emergence action against SETVI, 1280 g/ha", "type": "in vivo, Setaria viridis", "settings": "visual scoring after about 3 weeks vs untreated controls, 100% = plants have died, 0% = like control plants", "outline": "as §1"}, "[7]": {"system": "ABUTH", "experiment": "Pre-emergence action against ABUTH, 1280 g/ha", "type": "in vivo, Abutilon theophrasti", "settings": "scored visually after about 3 weeks vs untreated controls (100% = plants have died)", "outline": "as §1"}, "[8]": {"system": "AMARE", "experiment": "Pre-emergence action against AMARE, 1280 g/ha", "type": "in vivo, Amaranthus retroflexus", "settings": "scored visually after about 3 weeks vs untreated controls (100% = plants have died)", "outline": "as §1"}, "[9]": {"system": "MATIN", "experiment": "Pre-emergence action against MATIN, 1280 g/ha", "type": "in vivo, Tripleurospermum inodorum (Matricaria inodora)", "settings": "scored visually after about 3 weeks vs untreated controls (100% = plants have died)", "outline": "as §1"}, "[10]": {"system": "STEME", "experiment": "Pre-emergence action against STEME, 1280 g/ha", "type": "in vivo, Stellaria media", "settings": "scored visually after about 3 weeks vs untreated controls (100% = plants have died)", "outline": "as §1"}, "[11]": {"system": "VERPE", "experiment": "Pre-emergence action against VERPE, 1280 g/ha", "type": "in vivo, Veronica persica", "settings": "scored visually after about 3 weeks vs untreated controls (100% = plants have died)", "outline": "as §1"}, "[12]": {"system": "AVEFA", "experiment": "Pre-emergence action at 320 g/ha against AVEFA", "type": "in vivo", "settings": "visual scoring after about 3 weeks vs untreated controls", "outline": "(§2)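 Application: aqueous WP or EC with 0.5% additive on soil covering seeds, 600 l/ha. Read-out: visual percent damage after ~3 weeks in greenhouse, untreated pots as reference.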"}, "[13]": {"system": "DIGSA", "experiment": "Pre-emergence action at 320 g/ha against DIGSA", "type": "in vivo, Digitaria sanguinalis", "settings": "visual scoring after about 3 weeks vs untreated controls", "outline": "as §2"}, "[14]": {"system": "AMARE", "experiment": "Pre-emergence action at 320 g/ha against AMARE", "type": "in vivo, Amaranthus retroflexus", "settings": "visual scoring after about 3 weeks vs untreated controls", "outline": "as §2"}, "[15]": {"system": "MATIN", "experiment": "Pre-emergence action at 320 g/ha against MATIN", "type": "in vivo, Tripleurospermum inodorum (Matricaria inodora)", "settings": "visual scoring after about 3 weeks vs untreated controls", "outline": "as §2"}, "[16]": {"system": "POLCO", "experiment": "Pre-emergence action at 320 g/ha against POLCO", "type": "in vivo, Fallopia convolvulus (Polygonum convolvulus)", "settings": "visual scoring after about 3 weeks vs untreated controls", "outline": "as §2"}, "[17]": {"system": "VERPE", "experiment": "Pre-emergence action at 320 g/ha against VERPE", "type": "in vivo, Veronica persica", "settings": "visual scoring after about 3 weeks vs untreated controls", "outline": "as §2"}, "[18]": {"system": "VIOTR", "experiment": "Pre-emergence action at 320 g/ha against VIOTR", "type": "in vivo, Viola tricolor", "settings": "dosage 320 g/ha", "outline": "as §2"}, "[19]": {"system": "DIGSA", "experiment": "Post-emergence action against DIGSA, 1.28 kg/ha", "type": "in vivo, Digitaria sanguinalis", "settings": "dosage 1280 g/ha, visual rating about 3 weeks after treatment vs untreated controls", "outline": "(§3)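 Visual rating against untreated plants about 3 weeks after spraying gives % activity, where 0% means like controls and 100% means plants died. Plants were treated post-emergence at the one-leaf stage with compound formulated as wettable powder or emulsion concentrate, applied at 600 L water/ha plus 0.5% additive.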"}, "[20]": {"system": "ECHCG", "experiment": "Post-emergence action against ECHCG, 1.28 kg/ha", "type": "in vivo, Echinochloa crus-galli", "settings": "dosage 1280 g/ha, visual rating about 3 weeks after treatment vs untreated controls", "outline": "as §3"}, "[21]": {"system": "POAAN", "experiment": "Post-emergence action against POAAN, 1.28 kg/ha", "type": "in vivo, Poa annua", "settings": "dosage 1280 g/ha, visual rating about 3 weeks after treatment vs untreated controls", "outline": "as §3"}, "[22]": {"system": "SETVI", "experiment": "Post-emergence action against SETVI, 1.28 kg/ha", "type": "in vivo, Setaria viridis", "settings": "dosage 1280 g/ha, visual rating about 3 weeks after treatment vs untreated controls", "outline": "as §3"}, "[23]": {"system": "AMARE", "experiment": "Post-emergence action against AMARE, 1.28 kg/ha", "type": "in vivo, Amaranthus retroflexus", "settings": "dosage 1280 g/ha, visual rating about 3 weeks after treatment vs untreated controls (100% = plants died)", "outline": "as §3"}, "[24]": {"system": "MATIN", "experiment": "Post-emergence action against MATIN, 1.28 kg/ha", "type": "in vivo, Tripleurospermum inodorum (Matricaria inodora)", "settings": "dosage 1280 g/ha, visual rating about 3 weeks after treatment vs untreated controls (100% = plants died)", "outline": "as §3"}, "[25]": {"system": "STEME", "experiment": "Post-emergence action against STEME, 1.28 kg/ha", "type": "in vivo, Stellaria media", "settings": "dosage 1280 g/ha, visual rating about 3 weeks after treatment vs untreated controls (100% = plants died)", "outline": "as §3"}, "[26]": {"system": "VERPE", "experiment": "Post-emergence action against VERPE, 1.28 kg/ha", "type": "in vivo, Veronica persica", "settings": "dosage 1280 g/ha, visual rating about 3 weeks after treatment vs untreated controls (100% = plants died)", "outline": "as §3"}, "[27]": {"system": "ALOMY", "experiment": "Post-emergence action against ALOMY, 320 g/ha", "type": "in vivo, Alopecurus myosuroides", "settings": "dosage 320 g/ha, visual rating about 3 weeks after treatment vs untreated controls (100% = plants died)", "from_the_text": "(§4) Accordingly, the compounds of the invention have good herbicidal action against a broad spectrum of weed grasses and broad-leaved weeds and are therefore suitable for controlling unwanted vegetation by the post-emergence method. • b) Seeds of monocotyledonous and dicotyledonous weeds and crop plants are placed in sandy loam in plastic or organic planting pots, covered with soil and cultivated in a greenhouse under controlled growth conditions. 2 to 3 weeks after sowing, the test plants are treated at the one-leaf stage. The compounds of the invention, formulated in the form of wettable powders (WP) or as emulsion concentrates (EC), are then sprayed onto the green parts of the plants as aqueous suspension or emulsion with addition of 0.5% additive at a water application rate of 600 l/ha (converted). After the test plants have been kept in the greenhouse under optimum growth conditions for about 3 weeks, the activity of the preparations is rated visually in comparison to untreated controls. For example, 100% activity=the plants have died, 0% activity=like control plants. Tables 39 to 49 below show the effects of selected compounds of the general formula (I) according to Tables 1 and 2 on various harmful plants and at an application rate corresponding to 320 g/ha, which were obtained by the experimental procedure mentioned above."}, "[28]": {"system": "DIGSA", "experiment": "Post-emergence action at 320 g/ha against DIGSA", "type": "in vivo, Digitaria sanguinalis", "settings": "dosage 320 g/ha, visual rating about 3 weeks after treatment vs untreated controls (100% = plants died)", "from_the_text": "as §4"}, "[29]": {"system": "ABUTH", "experiment": "Post-emergence action at 320 g/ha against ABUTH", "type": "in vivo, Abutilon theophrasti", "settings": "visual rating about 3 weeks after treatment vs untreated controls", "from_the_text": "as §4"}, "[30]": {"system": "SETVI", "experiment": "Post-emergence action at 320 g/ha against SETVI", "type": "in vivo, Setaria viridis", "settings": "visual rating about 3 weeks after treatment vs untreated controls", "from_the_text": "as §4"}, "[31]": {"system": "POLCO", "experiment": "Post-emergence action at 320 g/ha against POLCO", "type": "in vivo, Fallopia convolvulus (Polygonum convolvulus)", "settings": "visual rating about 3 weeks after treatment vs untreated controls", "from_the_text": "as §4"}, "[32]": {"system": "AVEFA", "experiment": "Post-emergence action at 320 g/ha against AVEFA", "type": "in vivo", "settings": "visual rating about 3 weeks after treatment vs untreated controls", "from_the_text": "as §4"}}, "data": [{"smiles": "CCOC(=O)COc1nn(-c2ccccc2F)c(-c2cncnc2)c1Br", "note": "[VI-001]", "values": [{"measurement": "Pre-emergence action against ALOMY", "setting": "[1]", "result": 90, "unit": "%"}, {"measurement": "Pre-emergence action against DIGSA", "setting": "[2]", "result": 90, "unit": "%"}, {"measurement": "Pre-emergence action against ECHCG", "setting": "[3]", "result": 100, "unit": "%"}, {"measurement": "Pre-emergence action against LOLRI", "setting": "[4]", "result": 100, "unit": "%"}, {"measurement": "Pre-emergence action against POAAN", "setting": "[5]", "result": 100, "unit": "%"}, {"measurement": "Pre-emergence action against SETVI", "setting": "[6]", "result": 100, "unit": "%"}, {"measurement": "Pre-emergence action against ABUTH", "setting": "[7]", "result": 90, "unit": "%"}, {"measurement": "Pre-emergence action against AMARE", "setting": "[8]", "result": 100, "unit": "%"}, {"measurement": "Pre-emergence action against MATIN", "setting": "[9]", "result": 100, "unit": "%"}, {"measurement": "Pre-emergence action against STEME", "setting": "[10]", "result": 100, "unit": "%"}, {"measurement": "Pre-emergence action against VERPE", "setting": "[11]", "result": 100, "unit": "%"}, {"measurement": "Pre-emergence action against AVEFA in %", "setting": "[12]", "result": 90, "unit": "%"}, {"measurement": "Pre-emergence action against DIGSA in %", "setting": "[13]", "result": 100, "unit": "%"}, {"measurement": "Pre-emergence action against AMARE in %", "setting": "[14]", "result": 100, "unit": "%"}, {"measurement": "Pre-emergence action against MATIN in %", "setting": "[15]", "result": 90, "unit": "%"}, {"measurement": "Pre-emergence action against POLCO in %", "setting": "[16]", "result": 100, "unit": "%"}, {"measurement": "Pre-emergence action against VERPE in %", "setting": "[17]", "result": 100, "unit": "%"}, {"measurement": "Pre-emergence action against VIOTR in %", "setting": "[18]", "result": 100, "unit": "%"}, {"measurement": "Post-emergence action against DIGSA", "setting": "[19]", "result": 100, "unit": "%"}, {"measurement": "Post-emergence action against ECHCG", "setting": "[20]", "result": 100, "unit": "%"}, {"measurement": "Post-emergence action against POAAN", "setting": "[21]", "result": 100, "unit": "%"}, {"measurement": "Post-emergence action against SETVI", "setting": "[22]", "result": 100, "unit": "%"}, {"measurement": "Post-emergence action against AMARE", "setting": "[23]", "result": 90, "unit": "%"}, {"measurement": "Post-emergence action against MATIN", "setting": "[24]", "result": 90, "unit": "%"}, {"measurement": "Post-emergence action against STEME", "setting": "[25]", "result": 100, "unit": "%"}, {"measurement": "Post-emergence action against VERPE", "setting": "[26]", "result": 100, "unit": "%"}, {"measurement": "Post-emergence action against ALOMY", "setting": "[27]", "result": 90, "unit": "%"}, {"measurement": "Post-emergence action at 320 g/ha against DIGSA in %", "setting": "[28]", "result": 90, "unit": "%"}, {"measurement": "Post-emergence action against ABUTH in %", "setting": "[29]", "result": 80, "unit": "%"}, {"measurement": "Post-emergence action against SETVI in %", "setting": "[30]", "result": 80, "unit": "%"}, {"measurement": "Post-emergence action against POLCO in %", "setting": "[31]", "result": 90, "unit": "%"}, {"measurement": "Post-emergence action against AVEFA in %", "setting": "[32]", "result": 80, "unit": "%"}]}]}
